Test results taken from patent US20140128380A1, “METHODS OF MODULATING THE ACTIVITY OF THE MC1 RECEPTOR AND TREATMENT OF CONDITIONS RELATED TO THIS RECEPTOR” (Mimetica Pty Ltd, priority 2009, published 2014).

Molecular target: T1, human MC1R (hMC1R) (Homo sapiens, UniProt Q01726)
T1 construct: purchased Perkin Elmer ES-195-M400UA
Experiment: Human MC1R radioligand binding assay (displacement of 125I-labeled NDP-MSH, Perkin Elmer hMC1R membranes)
Conditions: displacement of [125I]NDP-MSH, compounds tested as trifluoroacetate or hydrochloride salts or free base
Method: Assessments of compound binding to human MC1R (hMC1R)) by displacement of an ^125I-labeled NDP-MSH receptor ligand peptide were performed essentially as described in the data sheets produced by Perkin Elmer to accompany their frozen hMC1R membranes (Perkin Elmer catalog number ES-195-M400UA).
[^125I] NDP-MSH: radiolabeled in house and purified by HPLC:
Na ^125I (0.5 mCi, 17.4 Ci/mg) was added to 50 μL sodium phosphate (50 mM, pH 7.4) in an eppendorf tube precoated with IODOGEN. After incubation for 10 mins the phosphate buffer containing the iodine was added to NDP-MSH (10 ul at 1 mg/mL) in a separate eppendorf tube. This was incubated for a further 10 mins. The iodinated NDP-MSH was purified by HPLC on a Zorbax SB 300 column using solvent A: 0.05% TFA and solvent B: 90% acetonitrile 0.045% TFA with a linear gradient, 0-67% B over 60 mins.
Perkin Elmer frozen hMC1 membranes: catalog number ES-195-M400UA, 0.4 mL/vial; 400 microassays/vial, 0.78 mg/mL protein concentration
Vials of frozen membranes were thawed rapidly immediately before use, diluted with binding buffer and vortexed. Resuspended membranes were kept on ice until they were added to the wells of the plate.
Assays were performed in 96 well polypropylene plates. […] This was incubated for 1 hr at 37° C.

T1 sequence (Q01726 whole entry): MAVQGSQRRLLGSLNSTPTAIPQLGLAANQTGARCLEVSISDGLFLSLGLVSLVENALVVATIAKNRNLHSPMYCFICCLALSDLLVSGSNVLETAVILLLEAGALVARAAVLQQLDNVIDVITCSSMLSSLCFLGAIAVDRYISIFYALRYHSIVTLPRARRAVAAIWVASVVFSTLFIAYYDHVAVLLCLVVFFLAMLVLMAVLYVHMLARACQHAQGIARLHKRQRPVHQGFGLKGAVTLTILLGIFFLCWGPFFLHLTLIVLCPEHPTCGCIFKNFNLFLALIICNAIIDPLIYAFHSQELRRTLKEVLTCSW

IC50 | Structure (SMILES)
< 10 µM | N=C(N)NCCC[C@H]1N[C@@H](CNC(=O)c2ccc(-c3ccccc3)cc2)CCN(CC2CCCCC2)C1=O [Compound 176, N-(((3R,5R)-1-(cyclohexylmethyl)-3-(3-guanidinopropyl)-2-oxo-1,4-diazepan-5-yl)methyl)biphenyl-4-carboxamide]
< 10 µM | O=C(/C=C/c1ccc(Cl)cc1)NC[C@@H]1CCN(CC(c2ccccc2)c2ccccc2)C(=O)[C@H](CCN2CCOCC2)N1 [Compound 159, (E)-3-(4-chlorophenyl)-N-(((3S,5S)-1-(2,2-diphenylethyl)-3-(2-morpholinoethyl)-2-oxo-1,4-diazepan-5-yl)methyl)acrylamide]
< 10 µM | CC[C@H](CN1CC[C@H](CNC(=O)c2ccc3cc(Cl)ccc3c2)N[C@H](CC(C)(C)N2CCCCC2)C1=O)c1ccccc1 [Compound 172, 6-chloro-N-(((3R,5R)-3-(2-methyl-2-(piperidin-1-yl)propyl)-2-oxo-1-((S)-2-phenylbutyl)-1,4-diazepan-5-yl)methyl)-2-naphthamide]
< 10 µM | CNC(=O)[C@H](Cc1ccc2ccccc2c1)N1CC[C@H](CNC(=O)[C@H](N)Cc2ccc(F)cc2)N[C@@H](CCCNC(=N)N)C1=O [Compound 168, (R)-2-amino-3-(4-fluorophenyl)-N-(((3S,5R)-3-(3-guanidinopropyl)-1-((S)-1-(methylamino)-3-(naphthalen-2-yl)-1-oxopropan-2-yl)-2-oxo-1,4-diazepan-5-yl)methyl)propanamide]
< 10 µM | CC(C)(NC(=O)/C=C/c1ccc(Cl)cc1)[C@@H]1CCN(CC(c2ccccc2)c2ccccc2)C(=O)[C@H](CCN2CCCCC2)N1 [Compound 165, (E)-3-(4-chlorophenyl)-N-(2-((3S,5S)-1-(2,2-diphenylethyl)-2-oxo-3-(2-(piperidin-1-yl)ethyl)-1,4-diazepan-5-yl)propan-2-yl)acrylamide]
< 10 µM | CNC(=O)[C@H](Cc1ccc2ccccc2c1)N1CC[C@H](CNC(=O)[C@@H](N)Cc2ccc(Cl)cc2)N[C@@H](CCCNC(=N)N)C1=O [Compound 173, (S)-2-amino-3-(4-chlorophenyl)-N-(((3S,5R)-3-(3-guanidinopropyl)-1-((S)-1-(methylamino)-3-(naphthalen-2-yl)-1-oxopropan-2-yl)-2-oxo-1,4-diazepan-5-yl)methyl)propanamide]
< 10 µM | CNC(=O)[C@H](Cc1ccc2ccccc2c1)N1CC[C@H]2CN(Cc3ccc(F)cc3)C(=O)N2[C@@H](CCCNC(=N)N)C1=O [Compound 142, (S)-2-((5S,9aS)-2-(4-fluorobenzyl)-5-(3-guanidinopropyl)-3,6-dioxotetrahydro-1H-imidazo[1,5-d][1,4]diazepin-7(8H,9H,9aH)-yl)-N-methyl-3-(naphthalen-2-yl)propanamide]
< 10 µM | N=C(N)NCCC[C@@H]1N[C@H](CNS(=O)(=O)c2ccc3ccccc3c2)CCN(CC(c2ccccc2)c2ccccc2)C1=O [Compound 103, N-(((3S,5S)-1-(2,2-diphenylethyl)-3-(3-guanidinopropyl)-2-oxo-1,4-diazepan-5-yl)methyl)naphthalene-2-sulfonamide]
< 10 µM | O=C(/C=C/c1ccc(Cl)cc1)NC[C@@H]1CCN(CC(c2ccccc2)c2ccccc2)C(=O)[C@H](CCN2CCCCC2)N1 [Compound 101, (E)-3-(4-chlorophenyl)-N-(((3S,5S)-1-(2,2-diphenylethyl)-2-oxo-3-(2-(piperidin-1-yl)ethyl)-1,4-diazepan-5-yl)methyl)acrylamide]
< 1 µM | CC[C@H](CN1CC[C@@H](CNC(=O)c2ccc3cc(Cl)ccc3c2)N[C@@H](CC(C)(C)N2CCCCC2)C1=O)c1ccccc1 [Compound 171, 6-chloro-N-(((3S,5S)-3-(2-methyl-2-(piperidin-1-yl)propyl)-2-oxo-1-((S)-2-phenylbutyl)-1,4-diazepan-5-yl)methyl)-2-naphthamide]
< 10 µM | O=C(NC[C@@H]1CCN(Cc2cc(Cl)cc(Cl)c2)C(=O)[C@H](CN2CCCCC2)N1)c1ccc(Cl)c(Cl)c1 [Compound 151, 3,4-dichloro-N-(((3S,5S)-1-(3,5-dichlorobenzyl)-2-oxo-3-(piperidin-1-ylmethyl)-1,4-diazepan-5-yl)methyl)benzamide]
< 10 µM | N=C(N)NCCC[C@@H]1N[C@H](CNC(=O)c2ccc3ccccc3c2)CCN(CC(C(=O)Nc2ccccc2)c2ccccc2)C1=O (stereo partly drawn) [Compound 147, N-(((3S,5S)-3-(3-guanidinopropyl)-2-oxo-1-(3-oxo-2-phenyl-3-(phenylamino)propyl)-1,4-diazepan-5-yl)methyl)-2-naphthamide]
< 10 µM | O=C(/C=C/c1ccc(Cl)cc1)NC[C@@H]1CCN(CC(c2ccccc2)c2ccccc2)C(=O)[C@H](CCCN2CCCCC2)N1 [Compound 132, (E)-3-(4-chlorophenyl)-N-(((3S,5S)-1-(2,2-diphenylethyl)-2-oxo-3-(3-(piperidin-1-yl)propyl)-1,4-diazepan-5-yl)methyl)acrylamide]
< 10 µM | N=C(N)NCCC[C@@H]1N[C@H](CNC(=O)c2ccc3ccccc3c2)CCN(CC(c2ccccc2)c2ccccc2)C1=O [Compound 107, N-(((3S,5S)-1-(2,2-diphenylethyl)-3-(3-guanidinopropyl)-2-oxo-1,4-diazepan-5-yl)methyl)-2-naphthamide]
< 10 µM | CC[C@@H](CN1CC[C@H](CNC(=O)c2ccc3cc(Cl)ccc3c2)N[C@H](CCN2CCCCC2)C1=O)c1ccccc1 [Compound 182, 6-chloro-N-(((3R,5R)-2-oxo-1-((R)-2-phenylbutyl)-3-(2-(piperidin-1-yl)ethyl)-1,4-diazepan-5-yl)methyl)-2-naphthamide]
< 10 µM | CN1[C@H](CNC(=O)c2ccc3cc(Br)ccc3c2)CCN(CC(c2ccccc2)c2ccccc2)C(=O)[C@@H]1CCCN [Compound 105, N-(((3S,5S)-3-(3-aminopropyl)-1-(2,2-diphenylethyl)-4-methyl-2-oxo-1,4-diazepan-5-yl)methyl)-6-bromo-2-naphthamide]
< 10 µM | CC(C)c1ccc(/C=C/C(=O)NC[C@@H]2CCN(CC(c3ccccc3)c3ccccc3)C(=O)[C@H](CCN3CCCCC3)N2)cc1 [Compound 155, (E)-N-(((3S,5S)-1-(2,2-diphenylethyl)-2-oxo-3-(2-(piperidin-1-yl)ethyl)-1,4-diazepan-5-yl)methyl)-3-(4-isopropylphenyl)acrylamide]
< 10 µM | Cc1ccc(/C=C/C(=O)NC[C@@H]2CCN(CC(c3ccccc3)c3ccccc3)C(=O)[C@H](CCN)N2)c(C)c1 [Compound 157, (E)-N-(((3S,5S)-3-(2-aminoethyl)-1-(2,2-diphenylethyl)-2-oxo-1,4-diazepan-5-yl)methyl)-3-(2,4-dimethylphenyl)acrylamide]
< 10 µM | CC[C@H](CN1CC[C@H](CNC(=O)c2ccc3cc(Cl)ccc3c2)N[C@H](CCN2CCCCC2)C1=O)c1ccccc1 [Compound 183, 6-chloro-N-(((3R,5R)-2-oxo-1-((S)-2-phenylbutyl)-3-(2-(piperidin-1-yl)ethyl)-1,4-diazepan-5-yl)methyl)-2-naphthamide]
< 10 µM | N=C(N)NCCC[C@@H]1N[C@H](CNC(=O)c2ccc3ccccc3c2)CCN(CCC2CCCCC2)C1=O [Compound 130, N-(((3S,5S)-1-(2-cyclohexylethyl)-3-(3-guanidinopropyl)-2-oxo-1,4-diazepan-5-yl)methyl)-2-naphthamide]
